This note sets out measurements from publication PMC12239085, “Silver(I) Ions Bridging Oxadiazole-2-thione Derivatives with Mitochondriotropic Agents: A Promising Strategy for Potent Anticancer Chemotherapy” (Inorganic Chemistry, 2025).

The experiment concerns MCF-7 cells. As to the kind of experiment: AO/EB staining detection of apoptotic cells. As to conditions: 48 h; for percentage of apoptotic cells: MCF-7, IC50 values, untreated 11.7 ± 2.8%. The format is cell-based, human. The method, then: Apoptotic MCF-7 cells were quantified and characterized using the AO/EB staining assay under fluorescence microscopy, and the results were correlated with previously observed morphological changes in the cells. The type of cell death was evaluated after incubation with complexes 1–5 for 48 h. This assay detects nuclear changes based on differences in membrane integrity between live and apoptotic cells. The fluorescent EB dye stains red only those cells that have lost membrane integrity, while the fluorescent AO dye stains both live and dead cells green. , Untreated MCF-7 cells display green radiation emitting nuclei. The percentage of apoptosis in untreated cells was calculated as 11.7 ± 2.8%. In apoptotic cells, varying degrees of changes are observed. Early stages of apoptosis are indicated by greenish-yellow fluorescent nuclei or green-yellow fragments, while late stages are characterized by orange fluorescence or the presence of orange fragments.
The MCF-7 cells were seeded into a 24-well plate (70,000 cells per well) and cultured at 37 °C for 24 h. […] Control and treated cells were collected after 48 h, the cells were harvested, washed twice with PBS and centrifuged. Twenty-five μL of cell suspension in PBS were incubated with 50 μg/mL AO and 50 μg/mL EB solution. Then, the cells were mixed gently and 10 μL of cells in suspension was placed on a glass slide and a coverslip was placed over it. At random, 300 cells were immediately observed in a fluorescent microscope (Optika inverted fluorescence microscope) and examined at ×60 magnification. ,

“And” between values parts separate entries of the source, which are not always exact repeats. Equal entries are not always repeated.

Take `Fc1ccccc1-c1nnc([S][Ag]([PH](c2ccccc2)(c2ccccc2)c2ccccc2)([PH](c2ccccc2)(c2ccccc2)c2ccccc2)[PH](c2ccccc2)(c2ccccc2)c2ccccc2)o1` [compound 2]: the “relative rate of apoptotic MCF-7 cells in respect to untreated control” value (“relative rate of apoptotic MCF-7 cells” for short) stood at 5.8 and the “percentage of apoptotic cells” value stood at 64.8 ± 2.5%.

Take `Fc1ccc(-c2nnc([S][Ag]([PH](c3ccccc3)(c3ccccc3)c3ccccc3)([PH](c3ccccc3)(c3ccccc3)c3ccccc3)[PH](c3ccccc3)(c3ccccc3)c3ccccc3)o2)cc1` [compound 3]: the “relative rate of apoptotic MCF-7 cells” value was 4.01 and 4.0; the “percentage of apoptotic cells” value was 46.9 ± 8.0%.

Turning to `Clc1ccccc1-c1nnc([S][Ag]([PH](c2ccccc2)(c2ccccc2)c2ccccc2)([PH](c2ccccc2)(c2ccccc2)c2ccccc2)[PH](c2ccccc2)(c2ccccc2)c2ccccc2)o1` [compound 4], the “relative rate of apoptotic MCF-7 cells” value is 4.03 and 4.0; the “percentage of apoptotic cells” value is recorded as 47.2 ± 5.6%.

As for `c1ccc(-c2nnc([S][Ag]([PH](c3ccccc3)(c3ccccc3)c3ccccc3)([PH](c3ccccc3)(c3ccccc3)c3ccccc3)[PH](c3ccccc3)(c3ccccc3)c3ccccc3)o2)cc1` [compound 1], the “relative rate of apoptotic MCF-7 cells” value is 5.13 and 5.1; the “percentage of apoptotic cells” value was 60.0 ± 5.2%.

As to `Clc1cccc(-c2nnc([S][Ag]([PH](c3ccccc3)(c3ccccc3)c3ccccc3)([PH](c3ccccc3)(c3ccccc3)c3ccccc3)[PH](c3ccccc3)(c3ccccc3)c3ccccc3)o2)c1` [compound 5], the “relative rate of apoptotic MCF-7 cells” value worked out at 5.5 and the “percentage of apoptotic cells” value was determined as 64.3 ± 8.2%.
